Measured values from EP4813989A1, “CRYSTAL, PHARMACEUTICAL COMPOSITION, PREPARATION METHOD THEREFOR, AND USE THEREOF” (TYK Medicines, Inc., priority 2023, dated 2025).

Columns and labels:
Type in all cases: physicochemical
[1] = Solid form stability on standing (XRD/PLM)
Source text: The resulting solid sample was subjected to a corresponding characterization test. An XRD pattern of the sample can be seen in FIG. 8.
A crystal form E sample was obtained by suspending and stirring the amorphous sample prepared in Example 2 in a 1,4-dioxane/n-heptane solvent system at room temperature. XRD results of the sample can be seen in FIG. 9. […] On this basis, it was inferred that the crystal form E was a metastable crystal form.
XRD results of the sample can be seen in FIG. 17.
XRD results of the sample can be seen in FIG. 20. TGA/DSC results can be seen in FIG. 21. […] An ^1H NMR spectrum of the crystal form D was obtained by a test in DMSO-d6, and no obvious solvent residue was observed. […] Based on nuclear magnetic resonance data and heating test results of the sample, it was inferred that the crystal form D was a hydrate crystal form.

[2] = Approximate solubility in organic solvents at room temperature
[3] = High-temperature test, related substances by HPLC; details: for Increase of impurity RRT0.66 content / Increase of impurity RRT1.02 content / Increase of impurity RRT1.08 content / Increase of total impurities / Impurity content RRT0.55 / Impurity content RRT0.66 / Impurity content RRT0.71 / Impurity content RRT0.94 / Impurity content RRT1.02 / Impurity content RRT1.06 / Impurity content RRT1.08 / Impurity content RRT1.15 / Total impurities: 50°C±2°C; for Impurity content RRT0.55 / Impurity content RRT0.66 / Impurity content RRT0.71 / Impurity content RRT0.94 / Impurity content RRT1.02 / Impurity content RRT1.06 / Impurity content RRT1.08 / Impurity content RRT1.15 / Total impurities: open
Description: An investigation method for the high-temperature test can be seen in Table 11 below.
Results of related substances in each crystal form under the high-temperature condition (50°C±2°C) can be seen in Table 15.
HPLC detection results of related substances under the high-temperature condition: Table 15

**Q.** Which Solid form stability ([1]; ambient conditions (room temperature, >20%RH), overnight plus two days) does the source give for `C[C@@H](Nc1ccn2ncc(C3=NOC(C)(C)N3)c2n1)c1cc(F)cc(F)c1F` [amorphous form] here?
**A.** unstable under ambient conditions

**Q.** Which results are given for `C[C@@H](Nc1ccn2ncc(C3=NOC(C)(C)N3)c2n1)c1cc(F)cc(F)c1F` [crystal form A]?
**A.** solubility ([2]; Acetone): > 40 mg/mL; solubility ([2]; Acetonitrile): > 44 mg/mL; solubility ([2]; Dichloromethane): > 40 mg/mL; solubility ([2]; Ethanol): > 38 mg/mL; solubility ([2]; Ethyl acetate): > 44 mg/mL; solubility ([2]; Isopropanol): > 42 mg/mL; solubility ([2]; Isopropyl acetate): > 38 mg/mL; solubility ([2]; Methanol): > 36 mg/mL; solubility ([2]; Methyl isobutyl ketone): > 40 mg/mL; solubility ([2]; Trichloromethane): > 44 mg/mL; Increase of impurity RRT0.66 content ([3]; 32 days): ≤ 0.02%; Increase of impurity RRT1.02 content ([3]; 32 days): no obvious change; Increase of impurity RRT1.08 content ([3]; 32 days): 0.05%; Increase of total impurities ([3]; 32 days): 0.16%; Impurity content RRT0.55 ([3]; 0 day): 0.03%; Impurity content RRT0.66 ([3]; 0 day): 0.18%; Impurity content RRT0.71 ([3]; 0 day): 0.15%; Impurity content RRT0.94 ([3]; 0 day): 0.04%; Impurity content RRT1.02 ([3]; 0 day): 0.28%; Impurity content RRT1.06 ([3]; 0 day): 0.07%; Impurity content RRT1.08 ([3]; 0 day): 0.16%; Impurity content RRT1.15 ([3]; 0 day): 0.03%; Total impurities ([3]; 0 day): 0.95%; Impurity content RRT0.55 ([3]; 5 days): 0.03%; Impurity content RRT0.66 ([3]; 5 days): 0.19%; Impurity content RRT0.71 ([3]; 5 days): 0.16%; Impurity content RRT0.94 ([3]; 5 days): 0.04%; Impurity content RRT1.02 ([3]; 5 days): 0.31%; Impurity content RRT1.06 ([3]; 5 days): 0.08%; Impurity content RRT1.08 ([3]; 5 days): 0.19%; Impurity content RRT1.15 ([3]; 5 days): 0.03%; Total impurities ([3]; 5 days): 1.03%; Impurity content RRT0.55 ([3]; 11 days): 0.03%; Impurity content RRT0.66 ([3]; 11 days): 0.19%; Impurity content RRT0.71 ([3]; 11 days): 0.16%; Impurity content RRT0.94 ([3]; 11 days): 0.03%; Impurity content RRT1.02 ([3]; 11 days): 0.30%; Impurity content RRT1.06 ([3]; 11 days): 0.08%; Impurity content RRT1.08 ([3]; 11 days): 0.22%; Impurity content RRT1.15 ([3]; 11 days): 0.03%; Total impurities ([3]; 11 days): 1.04%; Impurity content RRT0.55 ([3]; 32 days): 0.05%; Impurity content RRT0.66 ([3]; 32 days): 0.20%; Impurity content RRT0.71 ([3]; 32 days): 0.17%; Impurity content RRT0.94 ([3]; 32 days): 0.05%; Impurity content RRT1.02 ([3]; 32 days): 0.30%; Impurity content RRT1.06 ([3]; 32 days): 0.08%; Impurity content RRT1.08 ([3]; 32 days): 0.21%; Impurity content RRT1.15 ([3]; 32 days): 0.05%; Total impurities ([3]; 32 days): 1.11%; Overall stability (conclusion) ([3]; compared with crystal form E and amorphous form, all four stress tests): the most stable crystal form

**Q.** With `C[C@@H](Nc1ccn2ncc(C3=NOC(C)(C)N3)c2n1)c1cc(F)cc(F)c1F` [crystal form E] as the molecule, how does the “Increase of impurity RRT0.66 content” value ([3]; 32 days) read?
**A.** 0.05%

**Q.** And the “Increase of impurity RRT1.02 content” value ([3]; 32 days)?
**A.** 0.19%

**Q.** What about the “Increase of impurity RRT1.08 content” value ([3]; 32 days) of the same molecule?
**A.** 0.23%

**Q.** And the “Increase of total impurities” value ([3]; 32 days)?
**A.** 0.51%

**Q.** What about the “Impurity content RRT0.55” value ([3]; 0 day) of the same molecule?
**A.** 0.04%

**Q.** What about the “Impurity content RRT0.66” value ([3]; 0 day) of the same molecule?
**A.** 0.21%

**Q.** What about the “Impurity content RRT0.71” value ([3]; 0 day) of the same molecule?
**A.** 0.14%

**Q.** What about the “Impurity content RRT0.94” value ([3]; 0 day) of the same molecule?
**A.** 0.03%

**Q.** What about the “Impurity content RRT1.02” value ([3]; 0 day) of the same molecule?
**A.** 0.21%

**Q.** What about the “Impurity content RRT1.06” value ([3]; 0 day) of the same molecule?
**A.** 0.07%

**Q.** And the “Impurity content RRT1.08” value ([3]; 0 day)?
**A.** 0.17%

**Q.** And the “Impurity content RRT1.15” value ([3]; 0 day)?
**A.** 0.03%

**Q.** What about the Total impurities ([3]; 0 day) of the same molecule?
**A.** 0.89%

**Q.** What about the “Impurity content RRT0.55” value ([3]; 5 days) of the same molecule?
**A.** 0.03%

**Q.** And the “Impurity content RRT0.66” value ([3]; 5 days)?
**A.** 0.22%

**Q.** What about the “Impurity content RRT0.71” value ([3]; 5 days) of the same molecule?
**A.** 0.15%

**Q.** And the “Impurity content RRT0.94” value ([3]; 5 days)?
**A.** 0.03%

**Q.** And the “Impurity content RRT1.02” value ([3]; 5 days)?
**A.** 0.27%

**Q.** And the “Impurity content RRT1.06” value ([3]; 5 days)?
**A.** 0.05%

**Q.** And the “Impurity content RRT1.08” value ([3]; 5 days)?
**A.** 0.24%

**Q.** What about the “Impurity content RRT1.15” value ([3]; 5 days) of the same molecule?
**A.** 0.03%

**Q.** What about the Total impurities ([3]; 5 days) of the same molecule?
**A.** 1.03%

**Q.** And the “Impurity content RRT0.55” value ([3]; 11 days)?
**A.** 0.04%

**Q.** What about the “Impurity content RRT0.66” value ([3]; 11 days) of the same molecule?
**A.** 0.22%

**Q.** And the “Impurity content RRT0.71” value ([3]; 11 days)?
**A.** 0.13%

**Q.** What about the “Impurity content RRT0.94” value ([3]; 11 days) of the same molecule?
**A.** 0.03%

**Q.** And the “Impurity content RRT1.02” value ([3]; 11 days)?
**A.** 0.30%

**Q.** And the “Impurity content RRT1.06” value ([3]; 11 days)?
**A.** 0.06%

**Q.** And the “Impurity content RRT1.08” value ([3]; 11 days)?
**A.** 0.29%

**Q.** And the “Impurity content RRT1.15” value ([3]; 11 days)?
**A.** 0.03%

**Q.** What about the Total impurities ([3]; 11 days) of the same molecule?
**A.** 1.10%

**Q.** And the “Impurity content RRT0.55” value ([3]; 32 days)?
**A.** 0.04%

**Q.** What about the “Impurity content RRT0.66” value ([3]; 32 days) of the same molecule?
**A.** 0.26%

**Q.** And the “Impurity content RRT0.71” value ([3]; 32 days)?
**A.** 0.14%

**Q.** What about the “Impurity content RRT0.94” value ([3]; 32 days) of the same molecule?
**A.** 0.05%

**Q.** What about the “Impurity content RRT1.02” value ([3]; 32 days) of the same molecule?
**A.** 0.40%

**Q.** And the “Impurity content RRT1.06” value ([3]; 32 days)?
**A.** 0.05%

**Q.** And the “Impurity content RRT1.08” value ([3]; 32 days)?
**A.** 0.40%

**Q.** What about the “Impurity content RRT1.15” value ([3]; 32 days) of the same molecule?
**A.** 0.05%

**Q.** And the Total impurities ([3]; 32 days)?
**A.** 1.40%

**Q.** And the Solid form stability ([1]; air-dried, open storage at room temperature, approximately 1 day)?
**A.** transformed into the crystal form A
